{
  "source": "patent US11542240B2",
  "about": "“STK19 inhibitors for treatment of cancer” (TRUSTEES OF BOSTON UNIVERSITY, priority 2018, dated 2023)",
  "key": {"A375 cells [1]": {"tested_on": "A375 cells", "assay": "immunoblots of NRAS phosphorylation and NRAS signaling", "type": "cell-based, human", "conditions": "A375 (NRASWT, BRAFV600E)"}, "[2]": {"tested_on": "hTERT/p53DD/CDK4(R24C) melanocytes", "assay": "colony formation assay of NRASQ61R-expressing immortal melanocytes", "type": "cell-based, human", "conditions": "3 μM IV"}, "[3]": {"target": "G9a histone lysine methyltransferase (Homo sapiens (Human), UniProt Q96KQ7)", "sequence (Q96KQ7 whole entry)": "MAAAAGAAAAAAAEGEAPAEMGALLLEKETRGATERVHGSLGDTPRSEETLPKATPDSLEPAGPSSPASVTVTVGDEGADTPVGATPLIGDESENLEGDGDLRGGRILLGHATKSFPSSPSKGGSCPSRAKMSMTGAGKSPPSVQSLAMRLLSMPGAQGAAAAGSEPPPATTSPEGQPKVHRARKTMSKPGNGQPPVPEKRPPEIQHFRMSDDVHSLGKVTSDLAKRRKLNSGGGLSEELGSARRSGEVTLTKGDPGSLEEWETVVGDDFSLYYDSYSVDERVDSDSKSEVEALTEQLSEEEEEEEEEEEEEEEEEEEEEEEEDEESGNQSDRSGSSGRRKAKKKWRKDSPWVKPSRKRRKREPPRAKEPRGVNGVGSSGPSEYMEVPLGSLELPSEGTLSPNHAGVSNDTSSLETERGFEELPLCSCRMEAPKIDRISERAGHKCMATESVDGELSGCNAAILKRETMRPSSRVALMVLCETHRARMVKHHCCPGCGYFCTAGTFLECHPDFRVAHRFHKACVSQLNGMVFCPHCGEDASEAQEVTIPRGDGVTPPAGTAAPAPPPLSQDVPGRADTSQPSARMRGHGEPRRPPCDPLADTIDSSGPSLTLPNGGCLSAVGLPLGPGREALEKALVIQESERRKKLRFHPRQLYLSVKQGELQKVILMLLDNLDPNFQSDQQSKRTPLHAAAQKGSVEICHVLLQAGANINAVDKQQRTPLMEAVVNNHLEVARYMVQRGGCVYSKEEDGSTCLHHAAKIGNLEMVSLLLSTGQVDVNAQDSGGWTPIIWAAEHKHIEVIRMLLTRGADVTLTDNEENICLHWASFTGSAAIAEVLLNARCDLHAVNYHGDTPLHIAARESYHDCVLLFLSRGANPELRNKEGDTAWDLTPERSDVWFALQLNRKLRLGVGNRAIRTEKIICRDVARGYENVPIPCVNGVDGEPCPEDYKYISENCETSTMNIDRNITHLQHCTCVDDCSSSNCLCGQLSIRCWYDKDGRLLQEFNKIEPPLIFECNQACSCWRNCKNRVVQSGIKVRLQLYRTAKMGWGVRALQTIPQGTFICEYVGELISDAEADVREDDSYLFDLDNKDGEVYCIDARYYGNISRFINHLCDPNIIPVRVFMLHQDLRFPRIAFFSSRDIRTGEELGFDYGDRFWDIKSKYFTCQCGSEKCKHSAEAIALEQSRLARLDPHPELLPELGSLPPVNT", "assay": "in vitro methyltransferase assay, G9a enzyme activity", "type": "biochemical", "conditions": "read-out: IC50, inhibitory activity towards G9a histone lysine methyltransferase"}, "STK19 V134Y": {"target": "STK19 V134Y (Homo sapiens (Human), UniProt P49842, V134Y)", "sequence (P49842 other isoform, or with tags, fused parts or gaps V134Y)": "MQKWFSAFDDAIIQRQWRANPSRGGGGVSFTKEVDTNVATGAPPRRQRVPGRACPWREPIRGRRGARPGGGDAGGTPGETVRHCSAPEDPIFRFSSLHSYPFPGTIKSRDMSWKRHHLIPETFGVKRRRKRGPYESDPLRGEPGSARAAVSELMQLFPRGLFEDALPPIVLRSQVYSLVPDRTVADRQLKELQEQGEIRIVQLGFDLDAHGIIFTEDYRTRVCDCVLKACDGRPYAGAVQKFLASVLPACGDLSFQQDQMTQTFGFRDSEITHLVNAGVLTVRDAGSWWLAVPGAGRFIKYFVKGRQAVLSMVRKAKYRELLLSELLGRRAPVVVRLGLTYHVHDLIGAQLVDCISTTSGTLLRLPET", "assay": "STK19 kinase assay, V134Y mutant", "conditions": "V134Y mutation"}, "[4]": {"tested_on": "SK-MEL-2 xenograft melanoma (with NRASQ61R)", "assay": "SK-MEL-2 xenograft in nude mice", "type": "in vivo, mouse", "description": "(§1) FIGS. 6B-6D. Growth curve, tumor weight, and dissected tumors for the xenograft experiments with indicated cells inoculated subcutaneously into flanks of nude mice treated with IV. Visible tumors were measured every three days. […] (FIGS. 6E-6G) Growth curve, tumor weight, and dissected tumors for the xenograft experiments with SK-MEL-2 cells inoculated subcutaneously into flanks of nude mice treated with IV. Visible tumors were measured every three days. […] (FIGS. 6H-6I) Effects of IV treatment on in vivo proliferation and apoptosis were evaluated by staining of the sections of tumor collected in G for Ki67 and cleaved caspase-3. The sections were counterstained with DAPI. Data are means±SD (n=7). Representative images were shown. Scale bar, 100 μm."}, "STK19 L139F": {"target": "STK19 L139F (Homo sapiens (Human), UniProt P49842, L139F)", "sequence (P49842 other isoform, or with tags, fused parts or gaps L139F)": "as the sequence (P49842 other isoform, or with tags, fused parts or gaps V134Y) above, with Y134V, L139F counted along it", "assay": "STK19 kinase assay, L139F mutant", "conditions": "L139F mutation"}, "[5]": {"tested_on": "hTERT/p53DD/CDK4(R24C) melanocytes", "assay": "cell proliferation assay of NRASQ61R-expressing immortal melanocytes", "type": "cell-based, human", "conditions": "3 μM IV"}, "STK19": {"target": "STK19 (Homo sapiens (Human), UniProt P49842)", "sequence (P49842 other isoform, or with tags, fused parts or gaps)": "as the sequence (P49842 other isoform, or with tags, fused parts or gaps V134Y) above, with Y134V counted along it", "assay": "in vitro kinase assay, HA-NRASQ61R phosphorylation by immunoblot", "conditions": "dose- and time-dependent; different doses 15 min or 3 μM different times"}, "[6]": {"tested_on": "hTERT/p53DD/CDK4(R24C) melanocytes xenograft", "assay": "xenograft tumor formation of engineered melanocytes in nude mice", "type": "in vivo, mouse", "description": "as §1\nThe inventors also performed immunofluorescence on SK-MEL-2 xenograft tumors to investigate the effects of IV on in vivo proliferation and apoptosis, represented by Ki67 and cleaved caspase-3 staining."}, "SK-MEL-2 cells [7]": {"tested_on": "SK-MEL-2 cells", "assay": "cell proliferation rate, 4 days", "type": "cell-based, human", "conditions": "SK-MEL-2, 4 days", "from_the_text": "(§2) In addition, the inventors investigated the growth inhibitory effects of IV in melanoma cells with different NRAS and BRAF status, including A375 and UACC62 (NRASWT, BRAFV600E), and SK-MEL-2 and WM2032 (NRASQ61R, BRAFWT)."}, "UACC62 cells": {"tested_on": "UACC62 cells", "assay": "cell proliferation rate, 4 days", "type": "cell-based, human", "conditions": "UACC62, 4 days", "from_the_text": "as §2"}, "WM2032 cells [8]": {"tested_on": "WM2032 cells", "assay": "cell proliferation rate, 4 days", "type": "cell-based, human", "conditions": "WM2032, 4 days", "from_the_text": "as §2"}, "A375 cells [9]": {"tested_on": "A375 cells", "assay": "cell proliferation rate, 4 days", "type": "cell-based, human", "conditions": "A375, 4 days", "from_the_text": "as §2"}, "SK-MEL-2 cells [10]": {"tested_on": "SK-MEL-2 cells", "assay": "caspase activity assay (apoptosis), 4 days", "type": "cell-based, human", "conditions": "SK-MEL-2, 4 days", "from_the_text": "as §2"}, "WM2032 cells [11]": {"tested_on": "WM2032 cells", "assay": "caspase activity assay (apoptosis), 4 days", "type": "cell-based, human", "conditions": "WM2032, 4 days", "from_the_text": "as §2"}, "A375 cells [12]": {"tested_on": "A375 cells", "assay": "caspase activity assay (apoptosis), 4 days", "type": "cell-based, human", "conditions": "A375, 4 days", "from_the_text": "as §2"}, "[13]": {"target": "panel of 468 diverse kinases (Homo sapiens, UniProt P24941)", "assay": "biochemical", "type": "binding", "conditions": "CDK2; 1000 nM; read-out: Percent Control"}, "[14]": {"target": "panel of 468 diverse kinases (Homo sapiens, UniProt P07948)", "sequence (P07948 2-512 limits assumed)": "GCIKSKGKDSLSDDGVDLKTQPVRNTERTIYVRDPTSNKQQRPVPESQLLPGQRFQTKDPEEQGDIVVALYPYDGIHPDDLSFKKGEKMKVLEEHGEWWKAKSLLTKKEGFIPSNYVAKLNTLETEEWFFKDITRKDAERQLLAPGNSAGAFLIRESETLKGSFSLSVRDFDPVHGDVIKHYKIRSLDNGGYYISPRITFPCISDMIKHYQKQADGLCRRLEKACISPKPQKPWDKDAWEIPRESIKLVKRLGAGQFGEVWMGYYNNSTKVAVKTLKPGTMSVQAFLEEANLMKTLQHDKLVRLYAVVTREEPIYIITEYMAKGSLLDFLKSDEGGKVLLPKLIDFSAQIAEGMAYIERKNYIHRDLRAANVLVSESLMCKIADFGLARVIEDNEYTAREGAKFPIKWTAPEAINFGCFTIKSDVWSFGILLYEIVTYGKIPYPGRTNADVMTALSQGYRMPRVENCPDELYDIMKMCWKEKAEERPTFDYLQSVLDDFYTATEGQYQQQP", "assay": "biochemical", "type": "binding", "conditions": "LYN; 1000 nM; read-out: Percent Control"}, "[15]": {"target": "panel of 468 diverse kinases (Homo sapiens, UniProt Q16620)", "sequence (Q16620 32-822 limits assumed)": "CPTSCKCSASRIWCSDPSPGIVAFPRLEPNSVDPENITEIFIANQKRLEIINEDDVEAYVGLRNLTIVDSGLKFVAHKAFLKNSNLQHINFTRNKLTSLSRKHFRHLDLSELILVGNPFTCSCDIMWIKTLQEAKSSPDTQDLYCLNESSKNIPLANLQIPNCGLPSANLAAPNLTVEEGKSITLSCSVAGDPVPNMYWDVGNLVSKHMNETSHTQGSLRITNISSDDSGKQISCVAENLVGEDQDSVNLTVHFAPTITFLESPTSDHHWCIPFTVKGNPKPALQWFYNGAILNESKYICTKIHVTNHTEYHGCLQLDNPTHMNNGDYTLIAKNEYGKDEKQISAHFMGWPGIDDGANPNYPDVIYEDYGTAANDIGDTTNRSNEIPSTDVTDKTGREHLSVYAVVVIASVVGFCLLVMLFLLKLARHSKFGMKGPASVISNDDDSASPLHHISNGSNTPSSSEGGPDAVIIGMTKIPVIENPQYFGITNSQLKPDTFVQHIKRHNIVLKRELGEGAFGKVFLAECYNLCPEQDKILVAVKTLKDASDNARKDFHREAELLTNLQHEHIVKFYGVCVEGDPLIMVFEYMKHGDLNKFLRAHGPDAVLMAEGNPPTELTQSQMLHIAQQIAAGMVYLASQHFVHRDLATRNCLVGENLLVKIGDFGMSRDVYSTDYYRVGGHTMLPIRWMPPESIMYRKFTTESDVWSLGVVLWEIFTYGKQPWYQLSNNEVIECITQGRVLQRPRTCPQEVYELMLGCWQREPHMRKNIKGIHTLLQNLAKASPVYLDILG", "assay": "biochemical", "type": "binding", "conditions": "TRKB; 1000 nM; read-out: Percent Control"}, "[16]": {"target": "panel of 468 diverse kinases (Homo sapiens, UniProt P30291)", "assay": "biochemical", "type": "binding", "conditions": "WEE1; 1000 nM; read-out: Percent Control"}, "[17]": {"target": "panel of 468 diverse kinases (Homo sapiens, UniProt Q16584)", "assay": "biochemical", "type": "binding", "conditions": "MLK3; 1000 nM; read-out: Percent Control"}, "[18]": {"target": "panel of 468 diverse kinases (Homo sapiens, UniProt P37023)", "sequence (P37023 22-503 limits assumed)": "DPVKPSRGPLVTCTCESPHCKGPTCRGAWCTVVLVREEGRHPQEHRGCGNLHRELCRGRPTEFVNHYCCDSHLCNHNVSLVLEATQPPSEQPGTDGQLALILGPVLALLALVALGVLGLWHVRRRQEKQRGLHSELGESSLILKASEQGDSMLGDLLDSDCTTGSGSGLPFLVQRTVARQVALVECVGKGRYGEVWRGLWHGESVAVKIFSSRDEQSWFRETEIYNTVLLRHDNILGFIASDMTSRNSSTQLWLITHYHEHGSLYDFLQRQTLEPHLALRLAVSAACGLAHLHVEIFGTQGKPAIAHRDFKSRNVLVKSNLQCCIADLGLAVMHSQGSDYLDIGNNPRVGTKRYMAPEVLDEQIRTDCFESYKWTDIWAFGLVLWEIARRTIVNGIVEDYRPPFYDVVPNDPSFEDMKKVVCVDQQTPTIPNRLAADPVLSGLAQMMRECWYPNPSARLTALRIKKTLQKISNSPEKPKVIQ", "assay": "biochemical", "type": "binding", "conditions": "ACVRL1; 1000 nM; read-out: Percent Control"}, "[19]": {"target": "panel of 468 diverse kinases (Homo sapiens, UniProt P49761)", "assay": "biochemical", "type": "binding", "conditions": "CLK3; 1000 nM; read-out: Percent Control"}, "[20]": {"target": "panel of 468 diverse kinases (Homo sapiens, UniProt Q9NYY3)", "assay": "biochemical", "type": "binding", "conditions": "PLK2; 1000 nM; read-out: Percent Control"}, "[21]": {"target": "panel of 468 diverse kinases (Homo sapiens, UniProt Q9UIK4)", "assay": "biochemical", "type": "binding", "conditions": "DAPK2; 1000 nM; read-out: Percent Control"}, "[22]": {"target": "panel of 468 diverse kinases (Homo sapiens, UniProt P36894)", "sequence (P36894 24-532 limits assumed)": "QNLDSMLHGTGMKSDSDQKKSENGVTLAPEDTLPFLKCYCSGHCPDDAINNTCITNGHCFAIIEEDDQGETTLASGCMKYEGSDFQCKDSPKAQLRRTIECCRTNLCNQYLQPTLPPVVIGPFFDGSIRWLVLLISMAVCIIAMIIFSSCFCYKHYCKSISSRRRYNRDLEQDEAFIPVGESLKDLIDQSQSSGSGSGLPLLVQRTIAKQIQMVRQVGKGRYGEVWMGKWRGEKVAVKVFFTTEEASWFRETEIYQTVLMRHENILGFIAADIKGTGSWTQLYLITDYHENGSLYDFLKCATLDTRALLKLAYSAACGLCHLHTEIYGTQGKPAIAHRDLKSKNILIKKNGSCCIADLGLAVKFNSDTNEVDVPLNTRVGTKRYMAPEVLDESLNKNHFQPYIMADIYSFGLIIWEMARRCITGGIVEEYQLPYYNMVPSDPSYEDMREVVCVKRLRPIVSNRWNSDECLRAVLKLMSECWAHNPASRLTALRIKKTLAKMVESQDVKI", "assay": "biochemical", "type": "binding", "conditions": "BMPRIV; 1000 nM; read-out: Percent Control"}, "[23]": {"target": "panel of 468 diverse kinases (Homo sapiens, UniProt Q8IVW4)", "assay": "biochemical", "type": "binding", "conditions": "CDKL3; 1000 nM; read-out: Percent Control"}, "[24]": {"target": "panel of 468 diverse kinases (Homo sapiens, UniProt P22694)", "assay": "biochemical", "type": "binding", "conditions": "PKAC-beta; 1000 nM; read-out: Percent Control"}, "[25]": {"target": "panel of 468 diverse kinases (Homo sapiens, UniProt P29376)", "sequence (P29376 17-864 limits assumed)": "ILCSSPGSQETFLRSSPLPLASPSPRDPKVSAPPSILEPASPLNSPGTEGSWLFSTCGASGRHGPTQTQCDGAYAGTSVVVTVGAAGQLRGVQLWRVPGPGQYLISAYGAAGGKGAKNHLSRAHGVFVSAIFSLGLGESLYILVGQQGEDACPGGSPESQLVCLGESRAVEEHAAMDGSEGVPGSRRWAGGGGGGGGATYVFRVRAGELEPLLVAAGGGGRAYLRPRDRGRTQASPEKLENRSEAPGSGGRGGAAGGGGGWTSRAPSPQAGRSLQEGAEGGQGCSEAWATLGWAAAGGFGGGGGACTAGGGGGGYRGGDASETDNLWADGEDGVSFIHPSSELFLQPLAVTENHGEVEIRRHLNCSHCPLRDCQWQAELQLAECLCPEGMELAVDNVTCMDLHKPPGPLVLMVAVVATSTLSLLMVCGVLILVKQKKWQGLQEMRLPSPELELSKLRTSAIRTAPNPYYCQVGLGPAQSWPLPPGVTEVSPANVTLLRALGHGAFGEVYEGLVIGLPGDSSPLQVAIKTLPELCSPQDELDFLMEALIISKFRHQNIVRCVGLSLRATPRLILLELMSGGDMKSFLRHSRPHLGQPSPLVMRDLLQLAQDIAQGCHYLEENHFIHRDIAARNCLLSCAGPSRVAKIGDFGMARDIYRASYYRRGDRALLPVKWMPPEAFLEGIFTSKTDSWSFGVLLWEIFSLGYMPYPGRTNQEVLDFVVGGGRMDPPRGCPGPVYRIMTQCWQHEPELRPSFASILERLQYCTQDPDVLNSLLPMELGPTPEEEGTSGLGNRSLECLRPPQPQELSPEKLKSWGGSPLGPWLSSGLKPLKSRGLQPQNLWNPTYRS", "assay": "biochemical", "type": "binding", "conditions": "LTK; 1000 nM; read-out: Percent Control"}},
  "data": [
    {"smiles": "COc1cc2nc(NC3CC3)nc(NC3CCN(C(C)C)CC3)c2cc1OC", "note": "[Formula IV]", "values": [
      {"measurement": "NRAS signaling, including MEK-ERK and PI3K pathways", "setting": "A375 cells [1]", "value": "much less effective"},
      {"measurement": "mutant NRAS/STK19-driven melanocyte colony formation", "setting": "[2]", "value": "significantly inhibited"},
      {"measurement": "IC50", "setting": "[3]", "value": 467, "unit": "nM"},
      {"measurement": "inhibitory potential of IV for STK19 V134Y", "setting": "STK19 V134Y", "value": "remarkably compromised"},
      {"measurement": "survival of SK-MEL-2 xenograft tumor-bearing mice", "setting": "[4]; 25 and 50 mg/kg IV vs controls", "value": "significantly prolonged"},
      {"measurement": "growth of SK-MEL-2 xenograft melanoma", "setting": "[4]; dose-dependent", "value": "inhibited growth"},
      {"measurement": "NRAS activity in SK-MEL-2 xenograft tumors", "setting": "[4]; immunoblot, different doses", "value": "inhibited NRAS activity"},
      {"measurement": "levels of H3K9 methylation in SK-MEL-2 xenograft tumors", "setting": "[4]; immunoblot, marker of G9a activity", "value": "did not affect"},
      {"measurement": "apoptosis of SK-MEL-2 tumors (cleaved caspase-3 staining)", "setting": "[4]; mouse, in vivo", "value": "induced apoptosis"},
      {"measurement": "in vivo cell proliferation of SK-MEL-2 tumors (Ki67 staining)", "setting": "[4]; mouse, in vivo", "value": "effectively inhibited"},
      {"measurement": "inhibitory potential of IV for STK19 L139F", "setting": "STK19 L139F", "value": "remarkably compromised"},
      {"measurement": "mutant NRAS/STK19-driven melanocyte proliferation", "setting": "[5]", "value": "significantly inhibited"},
      {"measurement": "phosphorylation of NRAS", "setting": "STK19", "value": "efficiently inhibited"},
      {"measurement": "mutant NRAS/STK19-driven melanocyte tumor formation", "setting": "[6]", "value": "significantly inhibited"},
      {"measurement": "cell growth", "setting": "SK-MEL-2 cells [7]", "value": "effectively inhibited"},
      {"measurement": "cell growth", "setting": "UACC62 cells", "value": "reduced impact"},
      {"measurement": "cell growth", "setting": "WM2032 cells [8]", "value": "effectively inhibited"},
      {"measurement": "cell growth", "setting": "A375 cells [9]", "value": "reduced impact"},
      {"measurement": "apoptosis", "setting": "SK-MEL-2 cells [10]", "value": "induced apoptosis"},
      {"measurement": "apoptosis", "setting": "WM2032 cells [11]", "value": "induced apoptosis"},
      {"measurement": "apoptosis", "setting": "A375 cells [12]", "value": "reduced impact"},
      {"measurement": "remaining activity at 1 µM", "setting": "[13]", "value": 91, "unit": "%"},
      {"measurement": "remaining activity at 1 µM", "setting": "[14]", "value": 77, "unit": "%"},
      {"measurement": "remaining activity at 1 µM", "setting": "[15]", "value": 48, "unit": "%"},
      {"measurement": "remaining activity at 1 µM", "setting": "[16]", "value": 100, "unit": "%"},
      {"measurement": "remaining activity at 1 µM", "setting": "[17]", "value": 93, "unit": "%"},
      {"measurement": "remaining activity at 1 µM", "setting": "[18]", "value": 99, "unit": "%"},
      {"measurement": "remaining activity at 1 µM", "setting": "[19]", "value": 91, "unit": "%"},
      {"measurement": "remaining activity at 1 µM", "setting": "[20]", "value": 55, "unit": "%"},
      {"measurement": "remaining activity at 1 µM", "setting": "[21]", "value": 93, "unit": "%"},
      {"measurement": "remaining activity at 1 µM", "setting": "[22]", "value": 100, "unit": "%"},
      {"measurement": "remaining activity at 1 µM", "setting": "[23]", "value": 66, "unit": "%"},
      {"measurement": "remaining activity at 1 µM", "setting": "[24]", "value": 96, "unit": "%"},
      {"measurement": "remaining activity at 1 µM", "setting": "[25]", "value": 82, "unit": "%"}
    ]}
  ]
}
